Values of other authors in article PMC5936891, “A focused library synthesis and cytotoxicity of quinones derived from the natural product bolinaquinone” (Royal Society Open Science, 2018).
Like-named read-outs stand apart in the source and are kept apart here.

What was measured:
Details in all cases: cited from earlier work
[1] = test system: HCT-116 colon carcinoma cells
[2] = test system: HeLa; design: method as in PMID 19995673, PMID 3839712
[3] = test system: L5178Y mouse lymphoma cells; design: method as in PMID 19995673, PMID 3839712
[4] = test system: P-388 leukaemia cells; design: method as in ref 21 = [21]; 21 Rodríguez J , Quiñoá E , Riguera R , Peters BM , Abrell LM , Crews P 1992 The structures and stereochemistry of cytotoxic sesquiterpene quinones from Dactylospongia elegans . Tetrahedron 48 , 6667
[5] = test system: A-549 lung; design: method as in ref 21 = [21]; 21 Rodríguez J , Quiñoá E , Riguera R , Peters BM , Abrell LM , Crews P 1992 The structures and stereochemistry of cytotoxic sesquiterpene quinones from Dactylospongia elegans . Tetrahedron 48 , 6667
[6] = test system: HT-29 colorectal; design: method as in ref 21 = [21]; 21 Rodríguez J , Quiñoá E , Riguera R , Peters BM , Abrell LM , Crews P 1992 The structures and stereochemistry of cytotoxic sesquiterpene quinones from Dactylospongia elegans . Tetrahedron 48 , 6667
[7] = test system: melanoma B16/F10; design: method as in ref 21 = [21]; 21 Rodríguez J , Quiñoá E , Riguera R , Peters BM , Abrell LM , Crews P 1992 The structures and stereochemistry of cytotoxic sesquiterpene quinones from Dactylospongia elegans . Tetrahedron 48 , 6667

## COC1=CC(=O)C(O)=C(C[C@@]2(C)CC[C@]3(C)C(C)=CCC[C@H]3[C@H]2C)C1=O [compound 1, bolinaquinone]
[1]; 50% growth inhibition
  GI50: 5.3 µM

## CC1=CCC[C@H]2[C@](C)(CC3=CC(=O)C=CC3=O)[C@@H](C)CC[C@]12C [compound 2, avarone]
[2]
  GI50: 26.8 ± 3 µM
[3]
  ED50 L5178Y mouse lymphoma cells: 0.62 ± 0.11 µM

## COC1=CC(=O)C(O)=C(C[C@@]2(C)[C@H](C)[C@@H]3CCCC(C)(C)C3=C[C@@H]2C)C1=O [compound 3, mamanuthaquinone]
[1]
  GI50: 5.58 µM

## C=C1CCC[C@H]2[C@](C)(CC3=C(O)C(=O)C=C(OC)C3=O)[C@@H](C)CC[C@]12C [compound 4, epi-ilimaquinone]
[4]
  GI50: 6.14 µM
[5]
  GI50: 2.51 µM
[6]
  GI50: 9.48 µM
[7]
  GI50: 3.1 µM
